The values below come from US12358904B2, “Inhibitors of TYK2” (Atomwise Inc., priority 2023, dated 2025).

In one experiment the target is T1, TYK2-JH2 (Homo sapiens, UniProt P29597).
T1 construct: TYK JH2 enzyme mix (ChemPartnec CP20210818A-BV); purchased ChemPartner CP20210818A-BV
The experiment is described as follows: TYK2-JH2 HTRF binding assay (ligand efficiency). The note with it: calculated from IC50 of the TYK-JH2 binding assay (Equation 1). On the procedure: The following example describes the TYK2-JH2 HTRF binding assay used to determine the ligand efficiency of the TYK2 inhibitors.
To calculate ligand efficiency, Equation 1 is applied:
[formula] in which IC50 comes from the binding assay used to determine compound potency.
TYK JH2 enzyme mix (ChemPartnec CP20210818A-BV), tracer (ChemPartnec CP-0029472-051) and mAb Anti-6HIS Tb cryptate Gold (Cisbio: Cat No. 61H12TLA) mix were prepared in assay buffer (10 mM MgCl2, 20 mM HEPES pH 7.5, 0.01% Triton X-100, 1 mM DTT). Compounds diluted in DMSO (Final Concentrations 0.1 to 0.000005 [μM]) and enzyme mix (0.5 nM Final Concentration) were added to 384 well plates, briefly centrifuged and incubated at room temperature for 10 minutes. After incubation, tracer mix (Tracer-35 nM final concentration); (Mab Anti-6HIS Tb cryptate Gold-0.5× final)) was added, briefly centrifuged then incubate at room temperature 60 minutes. After incubation, plates were read by Envision TR-FRET (Ex340/Em495/520) protocol (PerkinElmer-Envision 2104 multilabel plate reader).

The test system of another experiment is IL-12/pSTAT4. The experiment is described as follows: IL-12 induced pSTAT4 assay in NK-92 cells. Particulars: Homo sapiens, NK92, IL-12 stimulation, read-out: Cellular potency (IL-12/pSTAT4). It counts as cell-based. On the procedure: The following example describes the IL-12 induced pSTAT4 assay used to determine the cellular potency (IL-12/pSTAT4) of the TYK2 inhibitors.
NK-92 cells (human natural killer lymphoma cell line) were cultured in MEM α, nucleosides (Life Technologies, 22571020) 12.5% heat inactivated FBS (Dominique Dutscher, S1810), 12.5% heat inactivated Horse serum (Life Technologies, 26050088) and 1% Penicillin-Streptomycin (Life Technologies, 15140122), 5 ng/mL human IL-2 (R&D systems, 202-II/CF), 0.2 mM inositol (Sigma, PHR1351 lot LRAC4118), 0.1 mM β-mercaptoethanol (Life Technologies, 31350010), and 0.02 mM folic acid (Sigma, F8758).
NK-92 cells were starved overnight in starvation medium (Opti-MEM (ThermoFisher, 11058-021), 10% charcoal stripped FBS (ThermoFisher 12676-029), and 1% Penicillin (100U/ml)-Streptomycin (100 μg/ml) (ThermoFisher, ref 15140122)), then plated in a 96-well tissue culture plate (20K cells/well) prior to pre-incubation with test compounds (Final Concentration [nM] 1000 to 0.05) for 30 minutes at 37° C. Cells were stimulated with IL-12 (Final Concentration l0 ng/ml) for 30 minutes at 37° C., and terminated by addition of lysis buffer (MSD K150PAD-2). pSTAT4 (Tyr693) was detected using the Mesa Scale Discovery platform (MSD K150PAD-2), according to manufacturer's instruction. Briefly, cell lysates were added to pre-blocked plates and incubated for 1 hour at room temperature. Plates were washed and incubated with detection antibody for 1 hour at room temperature. Plates were washed and Read Buffer was added prior to measurement on the MSD (1300 MSD Quickplex SQ 120).

Structures are written as SMILES.

T1 sequence (P29597 589-875 limits assumed): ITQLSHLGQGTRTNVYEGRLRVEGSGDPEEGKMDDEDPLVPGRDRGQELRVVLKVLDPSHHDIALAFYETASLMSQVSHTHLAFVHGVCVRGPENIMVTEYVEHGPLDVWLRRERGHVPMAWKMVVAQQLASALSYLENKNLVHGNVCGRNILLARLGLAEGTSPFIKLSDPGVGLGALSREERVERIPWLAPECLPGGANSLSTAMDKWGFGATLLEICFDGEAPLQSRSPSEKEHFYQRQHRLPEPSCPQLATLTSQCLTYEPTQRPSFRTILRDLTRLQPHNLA

Consider `COc1cc(Nc2cc(Nc3ncccc3S(C)(=O)=O)ncn2)ncc1NC1(C)COC1` [Compound 62], for which, on TYK2-JH2, the “Ligand Efficiency” value is listed as “†† (††: 0.37-0.39)”. Moreover, in the experiment with IL-12/pSTAT4, the IC50 is above 1000 nM.

For the molecule `Cc1ccnc(Nc2cc(Nc3ccccc3P(C)(C)=O)ncn2)c1` [Compound 63, N^4-(2-(dimethylphosphoryl)phenyl)-N^6-(4-methylpyridin-2-yl) pyrimidine-4,6-diamine], on TYK2-JH2, the “Ligand Efficiency” value was “††† (†††: >0.39)”. Also, the IC50 in the experiment with IL-12/pSTAT4 is 100 to 1000 nM.

As to `CS(=O)(=O)c1cccnc1Nc1cc(Nc2ncccc2F)ncn1` [Compound 64, N^4-(3-fluoropyridin-2-yl)-N^6-(3-(methylsulfonyl)154yridine-2-yl) pyrimidine-4,6-diamine], at TYK2-JH2, the “Ligand Efficiency” value is “††† (†††: >0.39)”. The IC50 in the experiment with IL-12/pSTAT4 was above 1000 nM.

For the molecule `COc1ccnc(Nc2cc(Nc3cccc(C)n3)ncn2)c1S(C)(=O)=O` [Compound 65, N^4-(4-methoxy-3-(methylsulfonyl)155yridine-2-yl)-N^6-(6-methylpyridin-2-yl)pyrimidine-4,6-diamine], the “Ligand Efficiency” value at TYK2-JH2 is listed as “††† (†††: >0.39)”. In addition, in the experiment with IL-12/pSTAT4, the IC50 is above 1000 nM.

Take `Cn1ccc(Nc2cc(Nc3ccccc3S(C)(=O)=O)ncn2)n1` [Compound 66, N^4-(1-methyl-1H-pyrazol-3-yl)-N^6-(2-(methylsulfonyl)phenyl) pyrimidine-4,6-diamine]: the “Ligand Efficiency” value on TYK2-JH2 was “††† (†††: >0.39)”. Also, the IC50 in the experiment with IL-12/pSTAT4 is above 1000 nM.

Consider `Cn1ccc(Nc2cc(Nc3ccccc3C(N)=O)ncn2)n1` [Compound 67, 2-((6-((1-methyl-1H-pyrazol-3-yl)amino)pyrimidin-4-yl)amino)benzamide], for which the “Ligand Efficiency” value at TYK2-JH2 is given as “††† (†††: >0.39)”. Besides, the IC50 with IL-12/pSTAT4 is above 1000 nM.

As to `Cc1cccnc1Nc1cc(Nc2ccccc2C(N)=O)ncn1` [Compound 68, 2-((6-((3-methylpyridin-2-yl)amino)pyrimidin-4-yl)amino) benzamide], the “Ligand Efficiency” value at TYK2-JH2 was “††† (†††: >0.39)”. Further, the IC50 in the experiment with IL-12/pSTAT4 was above 1000 nM.

Consider `CS(=O)(=O)c1ccccc1Nc1cc(NC(=O)C2CC2)ncn1` [Compound 69, N^4-(cyclopropylcarbonyl)-N^6-(2-(methylsulfonyl)phenyl)pyrimidine-4,6-diamine], for which the “Ligand Efficiency” value at TYK2-JH2 is reported as “††† (†††: >0.39)”. In addition, the IC50 in the experiment with IL-12/pSTAT4 was above 1000 nM.

As for `COc1ccc(Nc2cc(NC(=O)C3CC3)ncn2)c(C(N)=O)c1` [Compound 70, 2-((6-(cyclopropanecarboxamido)pyrimidin-4-yl)amino)-5-methoxy benzamide], the “Ligand Efficiency” value on TYK2-JH2 was “††† (†††: >0.39)”. Also, the IC50 with IL-12/pSTAT4 was above 1000 nM.

On to `Cc1cccc(Nc2cc(Nc3ncccc3CS(C)(=O)=O)ncn2)n1` [Compound 71, N^4-(6-methylpyridin-2-yl)-N^6-(3-((methylsulfonyl)methyl) 162yridine-2-yl)pyrimidine-4,6-diamine], for which the “Ligand Efficiency” value on TYK2-JH2 is “††† (†††: >0.39)”. In the experiment with IL-12/pSTAT4, the IC50 is above 1000 nM.

On to `Cn1cc(-c2ccnc(Nc3cc(Nc4ccc(NC5(C)COC5)cn4)ncn3)c2S(C)(=O)=O)cn1` [Compound 72, N^4-(4-(1-methyl-1H-pyrazol-4-yl)-3-(methylsulfonyl)164yridine-2-yl)-N^6-(5-(3-methyloxetan-3-ylamino)164yridine-2-yl)pyrimidine-4,6-diamine], for which the “Ligand Efficiency” value at TYK2-JH2 is “† (†: <0.37)”. In the experiment on IL-12/pSTAT4, the IC50 is above 1000 nM.

`CC1(Nc2cnc(Nc3cc(Nc4ncccc4S(C)(=O)=O)ncn3)cn2)COC1` [Compound 74, N^4-(5-(3-methyloxetan-3-ylamino)pyrazin-2-yl)-N^6-(3-(methylsulfonyl)167yridine-2-yl)pyrimidine-4,6-diamine]: at TYK2-JH2, the “Ligand Efficiency” value was “††† (†††: >0.39)”. The IC50 in the experiment on IL-12/pSTAT4 is 100 to 1000 nM.

Regarding `COc1ccnc(Nc2cc(Nc3ccc(C(C)N4CC5(COC5)C4)cn3)ncn2)c1S(C)(=O)=O` (stereo not shown) [Compound 76, N^4-(5-(1-(2-oxa-6-azaspiro[3.3]heptan-6-yl)ethyl)170yridine-2-yl)-N^6-(4-methoxy-3-(methylsulfonyl)170yridine-2-yl)pyrimidine-4,6-diamine], at TYK2-JH2, the “Ligand Efficiency” value was “† (†: <0.37)”. The IC50 in the experiment with IL-12/pSTAT4 was 100 to 1000 nM.

Turning to `Cc1cc(Nc2cc(Nc3ncccc3S(C)(=O)=O)ncn2)nnc1C(C)N1CC2(COC2)C1` (stereo not shown) [Compound 77, N^4-(6-(1-(2-oxa-6-azaspiro[3.3]heptan-6-yl)ethyl)-5-methylpyri 172yridi-3-yl)-N^6-(3-(methylsulfonyl)172yridine-2-yl)pyrimidine-4,6-diamine], on TYK2-JH2, the “Ligand Efficiency” value was “†† (††: 0.37-0.39)”. Also, the IC50 with IL-12/pSTAT4 was above 1000 nM.

Take `CC(c1ccc(Nc2cc(Nc3ncc(C4COC4)cc3S(C)(=O)=O)ncn2)nc1)N1CC2(COC2)C1` (stereo not shown) [Compound 78, N^4-(5-(1-(2-oxa-6-azaspiro[3.3]heptan-6-yl)ethyl)175yridine-2-yl)-N^6-(3-(methylsulfonyl)-5-(oxetan-3-yl)175yridine-2-yl)pyrimidine-4,6-diamine]: on TYK2-JH2, the “Ligand Efficiency” value is reported as “† (†: <0.37)”. Moreover, the IC50 with IL-12/pSTAT4 was above 1000 nM.

In the case of `CS(=O)(=O)c1ccccc1Nc1cc(Nc2ccc(C(=O)NC3COC3)cn2)ncn1` [Compound 79, 6-((6-((2-(methylsulfonyl)phenyl)amino)pyrimidin-4-yl)amino)-N-(oxetan-3-yl)nicotinamide], at TYK2-JH2, the “Ligand Efficiency” value is “†† (††: 0.37-0.39)”. Also, the IC50 in the experiment with IL-12/pSTAT4 was above 1000 nM.

With `CS(=O)(=O)c1ccccc1Nc1cc(Nc2ccc(NC3COC3)cn2)ncn1` [Compound 80, N^4-(2-(methylsulfonyl)phenyl)-N^6-(5-(oxetan-3-ylamino)177yridine-2-yl) pyrimidine-4,6-diamine], the “Ligand Efficiency” value on TYK2-JH2 is on record as “† (†: <0.37)”. In addition, the IC50 in the experiment on IL-12/pSTAT4 is above 1000 nM.
